Reference: PubChem BioAssay (NCI)
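Each compound was tested at five concentrations against cells in 96-well plates for 48 hours. GI50: concentration for 50% inhibition of growth. The concentration for full growth arrest is given as TGI.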

Legend:
Test in all cases: growth of human tumour cells (NCI), 48 h
[1] = test system: NCI-H522 lung
[2] = test system: SW-620 colon
[3] = test system: NCI-H23 lung
[4] = test system: KM12 colon
[5] = test system: U251 CNS
[6] = test system: UACC-62 melanoma
[7] = test system: MDA-MB-231 breast
[8] = test system: OVCAR-5 ovarian
[9] = test system: SK-OV-3 ovarian
[10] = test system: NCI-H460 lung
[11] = test system: SNB-19 CNS
[12] = test system: SNB-75 CNS
[13] = test system: SF-539 CNS
[14] = test system: HS 578T breast
[15] = test system: DU-145 prostate
[16] = test system: EKVX NSCLC
[17] = test system: OVCAR-8 ovarian
[18] = test system: UACC-257 melanoma
[19] = test system: MOLT-4 leukemia
[20] = test system: CCRF-CEM leukemia
[21] = test system: SF-295 CNS
[22] = test system: RXF 393 renal
[23] = test system: HCC-2998 colon
[24] = test system: A549 NSCLC
[25] = test system: MCF7 breast
[26] = test system: A498 renal
[27] = test system: IGROV1 ovarian
[28] = test system: 786-0 renal
[29] = test system: HT29 colon
[30] = test system: ACHN renal
[31] = test system: UO-31 renal
[32] = test system: OVCAR-3 ovarian
[33] = test system: M14 melanoma
[34] = test system: CAKI-1 renal
[35] = test system: BT-549 breast
[36] = test system: HCT-15 colon
[37] = test system: LOX IMVI melanoma
[38] = test system: SF-268 CNS
[39] = test system: SK-MEL-2 melanoma
[40] = test system: RPMI-8226 leukemia
[41] = test system: SN12C renal
[42] = test system: COLO 205 colon
[43] = test system: NCI-H226 lung
[44] = test system: OVCAR-4 ovarian
[45] = test system: SR leukemia
[46] = test system: HCT-116 colon
[47] = test system: HL-60(TB) leukemia
[48] = test system: TK-10 renal
[49] = test system: SK-MEL-28 melanoma
[50] = test system: MDA-MB-435
[51] = test system: PC-3 prostate
[52] = test system: NCI/ADR-RES ovarian
[53] = test system: HOP-92 NSCLC
[54] = test system: MALME-3M melanoma
[55] = test system: HOP-62 NSCLC
[56] = test system: K-562 leukemia
[57] = test system: SK-MEL-5 melanoma
[58] = test system: T-47D breast
[59] = test system: MDA-N

Structure (SMILES): Cc1nnc(-c2ccc(C)c(-c3ccc(C(=O)NCc4ccc(Cl)cc4)cc3)c2)o1
- GI50 [1]: 8.49 µM
- TGI [1]: > 25 µM
- GI50 [2]: > 25 µM
- TGI [2]: > 25 µM
- GI50 [3]: 11.3 µM
- TGI [3]: > 25 µM
- GI50 [4]: 11 µM
- TGI [4]: > 25 µM
- GI50 [5]: > 25 µM
- TGI [5]: > 25 µM
- GI50 [6]: 8.21 µM
- TGI [6]: > 25 µM
- GI50 [7]: 10.4 µM
- TGI [7]: > 25 µM
- GI50 [8]: > 25 µM
- TGI [8]: > 25 µM
- GI50 [9]: 9.53 µM
- TGI [9]: > 25 µM
- GI50 [10]: 11.9 µM
- TGI [10]: > 25 µM
- GI50 [11]: > 22.6 µM
- TGI [11]: > 25 µM
- GI50 [12]: 7.88 µM
- TGI [12]: > 25 µM
- GI50 [13]: > 22.7 µM
- TGI [13]: > 25 µM
- GI50 [14]: 10.7 µM
- TGI [14]: > 25 µM
- GI50 [15]: 16.2 µM
- TGI [15]: > 25 µM
- GI50 [16]: 7.02 µM
- TGI [16]: > 25 µM
- GI50 [17]: > 25 µM
- TGI [17]: > 25 µM
- GI50 [18]: 8.07 µM
- TGI [18]: > 25 µM
- GI50 [19]: 9.73 µM
- TGI [19]: > 25 µM
- GI50 [20]: 14.7 µM
- TGI [20]: > 25 µM
- GI50 [21]: 7.16 µM
- TGI [21]: > 25 µM
- GI50 [22]: 6.28 µM
- TGI [22]: > 25 µM
- GI50 [23]: 17.5 µM
- TGI [23]: > 25 µM
- GI50 [24]: 11.5 µM
- TGI [24]: > 25 µM
- GI50 [25]: 7.37 µM
- TGI [25]: > 19 µM
- GI50 [26]: 7.03 µM
- TGI [26]: > 25 µM
- GI50 [27]: > 16.3 µM
- TGI [27]: > 25 µM
- GI50 [28]: 18.7 µM
- TGI [28]: > 25 µM
- GI50 [29]: 19.8 µM
- TGI [29]: > 25 µM
- GI50 [30]: 12.4 µM
- TGI [30]: > 25 µM
- GI50 [31]: 4.37 µM
- TGI [31]: > 25 µM
- GI50 [32]: 11.6 µM
- TGI [32]: > 25 µM
- GI50 [33]: 15.7 µM
- TGI [33]: > 25 µM
- GI50 [34]: 11.8 µM
- TGI [34]: > 25 µM
- GI50 [35]: 14.7 µM
- TGI [35]: > 25 µM
- GI50 [36]: 11.7 µM
- TGI [36]: > 25 µM
- GI50 [37]: > 25 µM
- TGI [37]: > 25 µM
- GI50 [38]: 12.9 µM
- TGI [38]: > 25 µM
- GI50 [39]: 12.7 µM
- TGI [39]: > 25 µM
- GI50 [40]: 10.2 µM
- TGI [40]: > 25 µM
- GI50 [41]: > 18 µM
- TGI [41]: > 25 µM
- GI50 [42]: 9.08 µM
- TGI [42]: > 23.7 µM
- GI50 [43]: 6.93 µM
- TGI [43]: > 25 µM
- GI50 [44]: 3.41 µM
- TGI [44]: 16.4 µM
- GI50 [45]: 11.9 µM
- TGI [45]: > 25 µM
- GI50 [46]: 12.6 µM
- TGI [46]: > 25 µM
- GI50 [47]: 8.55 µM
- TGI [47]: 24.5 µM
- GI50 [48]: > 15.7 µM
- TGI [48]: > 25 µM
- GI50 [49]: 14.3 µM
- TGI [49]: > 25 µM
- GI50 [50]: 7.15 µM
- TGI [50]: > 25 µM
- GI50 [51]: 8.82 µM
- TGI [51]: > 25 µM
- GI50 [52]: 9.04 µM
- TGI [52]: > 25 µM
- GI50 [53]: 3.26 µM
- TGI [53]: > 25 µM
- GI50 [54]: 6.15 µM
- TGI [54]: 24.9 µM
- GI50 [55]: 14.7 µM
- TGI [55]: > 25 µM
- GI50 [56]: 7.64 µM
- TGI [56]: > 25 µM
- GI50 [57]: 3.97 µM
- TGI [57]: 9.53 µM
- GI50 [58]: 4.13 µM
- TGI [58]: > 19.2 µM

Structure (SMILES): O=C(Nc1nc(C23CC4CC(CC(C4)C2)C3)cs1)c1cc2c(ccc3ccccc32)oc1=O
- TGI [1]: > 100 µM
- TGI [2]: > 100 µM
- TGI [3]: > 100 µM
- TGI [4]: > 100 µM
- TGI [5]: > 100 µM
- TGI [7]: > 100 µM
- TGI [8]: > 100 µM
- TGI [10]: > 100 µM
- TGI [11]: > 100 µM
- TGI [13]: > 100 µM
- TGI [14]: > 100 µM
- TGI [15]: > 100 µM
- TGI [16]: > 100 µM
- TGI [17]: > 100 µM
- TGI [18]: > 100 µM
- TGI [19]: > 100 µM
- TGI [20]: > 100 µM
- TGI [21]: > 100 µM
- TGI [23]: > 100 µM
- TGI [24]: > 100 µM
- TGI [25]: > 100 µM
- TGI [26]: > 100 µM
- TGI [27]: > 100 µM
- TGI [28]: > 100 µM
- TGI [29]: > 100 µM
- TGI [30]: > 100 µM
- TGI [31]: > 100 µM
- TGI [32]: > 100 µM
- TGI [34]: > 100 µM
- TGI [35]: > 100 µM
- TGI [36]: > 100 µM
- TGI [37]: > 100 µM
- TGI [38]: > 100 µM
- TGI [40]: > 100 µM
- TGI [41]: > 100 µM
- TGI [42]: > 100 µM
- TGI [43]: > 100 µM
- TGI [44]: > 100 µM
- TGI [45]: > 100 µM
- TGI [46]: > 100 µM
- TGI [47]: > 100 µM
- TGI [59]: > 100 µM
- TGI [48]: > 100 µM
- TGI [49]: > 100 µM
- TGI [50]: > 100 µM
- TGI [51]: > 100 µM
- TGI [52]: > 100 µM
- TGI [53]: > 100 µM
- TGI [54]: > 100 µM
- TGI [55]: > 100 µM
- TGI [56]: > 100 µM
- TGI [57]: > 100 µM
